The record followed here is PMC7125606 (Antiviral Research, 2009).

Where two headings read alike, the source gives them in different places.

The subject of data set [1] is Influenza A/H3N2 (strain X-31). In words: microbe, parasite or virus in culture. Type of data set: cell-based. The settings on record: H3N2, MDCK, in Homo sapiens, 72 h.
The subject of data set [2] is Influenza A/H3N2 (strain A/HK/7/87). In words: microbe, parasite or virus in culture. Type of data set: cell-based. The settings on record: H3N2, MDCK, in Homo sapiens, 72 h.
The next data set has as its system MDCK cells. The settings on record: minimal changes in cell morphology by microscopy.
A short description of the next data set: in vitro. The settings on record: dog.
Another data set concerns influenza virus. Type of data set: cell-based, human influenza virus. To be noted: Ratio of MCC to average EC50, MDCK cells.
Data set [3] deals with Human embryonic lung (HEL) fibroblasts.
Data set [4] relates to human cervix epithelial (HeLa) cells.
Data set [5] deals with African green monkey kidney (Vero) cells.
Setting [6] is: read-out: Antiviral EC50, Influenza A/H3N2 (strain X-31), CPE.
[7] abbreviates: read-out: Antiviral EC50, Influenza A/H3N2 (strain X-31), MTS.
Setting [8] is: read-out: Antiviral EC50, Influenza A/H3N2 (strain A/HK/7/87), CPE.
Where [9] appears, read: read-out: Antiviral EC50, Influenza A/H3N2 (strain A/HK/7/87), MTS.

In the case of `NC12CC3CC(CC(C3)C1)C2` [Amantadine], the EC50 in data set [1] (setting [6]) turned out to be 54 ± 33 µM; in data set [1] (setting [7]), 45 ± 21 µM; in data set [2] (setting [8]), 3.9 ± 4.1 µM; in data set [2] (setting [9]), 3.2 ± 4 µM. Besides, in the data set with MDCK cells, the “Cytotoxicity MCC (minimum cytotoxic concentration)” value (“Cytotoxicity MCC” below) was more than 100 µM. In the data set “in vitro”, this molecule displayed a CC50 of more than 100 µM.

Consider `COC(=O)[C@H]1NC(=O)[C@H]2NC(=O)[C@H](NC(=O)[C@@H]3NC(=O)[C@H]4NC(=O)[C@H](NC(=O)[C@H](N)c5ccc(O)c(c5)Oc5cc4cc(O)c5C)[C@H](O)c4ccc(cc4)Oc4cc3cc(c4O)Oc3ccc(cc3)[C@H]2O)c2ccc(O)c(c2)-c2c(O)cc(O)cc21` [Compound 2, aglycoristocetin], for which the EC50 was 8.4 ± 2.4 µM in data set [1] (setting [6]), 10.7 ± 2.5 µM in data set [1] (setting [7]), 4.3 ± 2.9 µM in data set [2] (setting [8]) and 3.2 ± 1.6 µM in data set [2] (setting [9]). In the data set on influenza virus, the Selectivity index stood at 15. The “Cytotoxicity MCC” value with MDCK cells was determined as 100 µM. Moreover, the “Cytotoxic concentration MCC, HEL” value in data set [3] was not below 100 µM. The “Cytotoxic concentration MCC, HeLa” value in data set [4] was not below 100 µM. Besides, the “Cytotoxic concentration MCC, Vero” value in data set [5] was determined as 100 µM. Also, the CC50 in “in vitro” was 44 ± 10 µM.

In the case of `CCC(CC)O[C@@H]1C=C(C(=O)O)C[C@H](N)[C@H]1NC(C)=O` [Oseltamivir carboxylate], the EC50 in data set [1] (setting [6]) is 0.027 ± 0.013 µM; in data set [1] (setting [7]), 0.064 ± 0.078 µM; in data set [2] (setting [8]) it was 0.26 ± 0.3 µM; in data set [2] (setting [9]), 0.23 ± 0.23 µM. For the same molecule, the “Cytotoxicity MCC” value with MDCK cells was more than 100 µM. For the same molecule, the CC50 in the data set “in vitro” is more than 100 µM.

Regarding `NC(=O)c1ncn([C@@H]2O[C@H](CO)[C@@H](O)[C@H]2O)n1` [Ribavirin], the EC50 in data set [1] (setting [6]) stood at 9 ± 0.04 µM; in data set [1] (setting [7]), 9.6 ± 2.2 µM; in data set [2] (setting [8]), 8 ± 2.2 µM; in data set [2] (setting [9]), 7.6 ± 3 µM. Moreover, the “Cytotoxicity MCC” value in the data set with MDCK cells was not below 100 µM.
